Structures can show the parent of a compound that is named as a salt.
Experiments:
human KDR enzyme = target: T1, human KDR enzyme (Homo sapiens, UniProt P35968); assay: KDR substrate (PLCγ) phosphorylation, scintillation assay; type: biochemical; details: 10 μM; read-out: KDR % inhib at 10 μM
T1 construct: The cytoplasmic domain of the human KDR enzyme; GST; made in house; host or cells: SF21 insect cells (baculovirus)
Method in brief: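 Values are percent inhibition relative to the compound-free control, read by scintillation counting of 33P incorporation after EDTA stop. Baculovirus/SF21-expressed GST-KDR cytoplasmic domain (100 ng) acted for 1 h at 37 °C in pH 7.2 MOPS kinase buffer. The substrate was GST-PLCγ SH2-SH3 (2 μg), added with γ33P-ATP and 2 μM unlabeled ATP.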

human FAK = target: T2, human FAK (Homo sapiens, UniProt Q05397); assay: FAK autophosphorylation inhibition, time resolved fluorescence (HTRF) assay; type: biochemical; details: for inhibition at 10 µM: 10 μM (values without asterisk), read-out: FAK % inhib at 10 μM
T2 construct: The complete cDNA of human FAK; made in house; host or cells: baculovirus expression system (vector pFastBac HTc)
T2 sequence (Q05397 whole entry): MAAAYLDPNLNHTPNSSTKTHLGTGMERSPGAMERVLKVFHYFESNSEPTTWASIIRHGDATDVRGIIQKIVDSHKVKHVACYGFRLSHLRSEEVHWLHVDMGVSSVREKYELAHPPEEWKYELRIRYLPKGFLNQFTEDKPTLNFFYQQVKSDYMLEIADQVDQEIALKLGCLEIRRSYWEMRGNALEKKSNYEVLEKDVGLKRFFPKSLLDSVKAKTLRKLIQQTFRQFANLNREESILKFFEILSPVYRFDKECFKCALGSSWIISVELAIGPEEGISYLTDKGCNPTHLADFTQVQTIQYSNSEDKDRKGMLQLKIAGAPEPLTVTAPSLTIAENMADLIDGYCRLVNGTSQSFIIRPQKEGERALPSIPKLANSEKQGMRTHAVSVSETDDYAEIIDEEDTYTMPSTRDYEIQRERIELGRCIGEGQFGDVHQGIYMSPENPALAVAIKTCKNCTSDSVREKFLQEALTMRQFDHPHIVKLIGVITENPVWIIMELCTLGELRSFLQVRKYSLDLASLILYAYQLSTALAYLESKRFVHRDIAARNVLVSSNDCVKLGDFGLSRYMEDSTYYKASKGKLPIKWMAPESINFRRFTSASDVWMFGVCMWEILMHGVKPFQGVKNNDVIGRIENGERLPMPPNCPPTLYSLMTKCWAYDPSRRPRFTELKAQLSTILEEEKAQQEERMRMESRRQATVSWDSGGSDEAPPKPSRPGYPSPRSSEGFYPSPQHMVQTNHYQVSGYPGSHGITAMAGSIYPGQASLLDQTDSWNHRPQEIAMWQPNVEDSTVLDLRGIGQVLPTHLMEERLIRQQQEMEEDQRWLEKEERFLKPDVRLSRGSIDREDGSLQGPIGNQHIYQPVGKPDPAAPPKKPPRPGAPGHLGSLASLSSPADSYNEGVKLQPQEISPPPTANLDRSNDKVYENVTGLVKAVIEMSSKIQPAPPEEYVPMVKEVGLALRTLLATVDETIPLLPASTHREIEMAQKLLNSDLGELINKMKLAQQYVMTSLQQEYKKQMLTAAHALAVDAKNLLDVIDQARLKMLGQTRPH
Method in brief: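 Autophosphorylation was detected by europium-cryptate anti-pTyr and XL665 anti-His energy transfer, percent inhibition from the 665/620 ratio relative to no-compound wells. Enzyme: His-FAK full length, 6.6 µg/ml, incubated 1 h at 37 °C, pH 7.2, 15 µM ATP.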

Aurora2 kinase = target: T3, Aurora2 kinase (Homo sapiens, UniProt O14965); assay: Aurora2 kinase radioactivity scintillation assay using nickel chelate (NuMA substrate); type: biochemical; details: 10 μM; read-out: Aurora2 % inhib at 10 μM
T3 construct: A complete recombinant Aurora2 enzyme; His tag (N); made in house; host or cells: E. coli
T3 sequence (O14965 1-403): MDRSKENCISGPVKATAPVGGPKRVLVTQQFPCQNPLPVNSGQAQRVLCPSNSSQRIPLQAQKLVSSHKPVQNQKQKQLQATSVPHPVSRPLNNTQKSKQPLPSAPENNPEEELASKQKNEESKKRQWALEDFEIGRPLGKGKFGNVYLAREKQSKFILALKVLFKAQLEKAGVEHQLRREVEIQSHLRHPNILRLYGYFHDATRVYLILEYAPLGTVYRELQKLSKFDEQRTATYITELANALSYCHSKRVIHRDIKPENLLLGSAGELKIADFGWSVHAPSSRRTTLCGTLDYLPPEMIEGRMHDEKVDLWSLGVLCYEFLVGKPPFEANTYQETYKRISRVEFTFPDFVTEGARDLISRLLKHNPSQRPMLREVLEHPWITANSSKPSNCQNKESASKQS
Method in brief: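 Read-out is 33P incorporation into His-NuMA (Q1687-H2101, 0.5 μM) captured on nickel chelate, after 30 min at 37 °C with 0.02 μM His-Aurora2 and 1 μM ATP. Expressed as percentage inhibition of uncompounded control activity, background subtracted.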

[1] = target: T4, human IGF1R cytoplasmic domain (Homo sapiens, UniProt P08069); assay: IGF1R autophosphorylation inhibition, time resolved fluorescence (HTRF) assay; type: biochemical; details: 10 μM; read-out: IGF1R % inhib at 10 μM
T4 construct: The human IGF1R cytoplasmic domain was cloned; made in house; host or cells: SF21 insect cells (baculovirus)
T4 sequence (P08069 960-1367 limits assumed): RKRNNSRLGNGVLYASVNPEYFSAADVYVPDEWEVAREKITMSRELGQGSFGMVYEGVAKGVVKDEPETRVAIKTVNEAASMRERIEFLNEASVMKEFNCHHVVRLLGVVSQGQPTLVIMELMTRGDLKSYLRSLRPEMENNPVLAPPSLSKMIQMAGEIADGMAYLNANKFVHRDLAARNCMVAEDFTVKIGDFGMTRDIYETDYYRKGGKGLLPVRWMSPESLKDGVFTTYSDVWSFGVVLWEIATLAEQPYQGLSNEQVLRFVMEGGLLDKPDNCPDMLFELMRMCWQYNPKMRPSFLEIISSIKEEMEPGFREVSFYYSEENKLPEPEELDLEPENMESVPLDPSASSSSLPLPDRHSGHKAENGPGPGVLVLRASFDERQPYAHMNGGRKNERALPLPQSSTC
Method in brief: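 GST-tagged human IGF1R cytoplasmic domain from SF21 cells incubated with compound in 50 mM Hepes pH 7.5, 5 mM MnCl2, 50 mM NaCl, […] ATP. Autophosphorylation detected by HTRF (Eu-K anti-phosphotyrosine, XL665 anti-GST) after EDTA/KF stop; percentage inhibition versus no-compound control.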

T1 sequence (P35968 786-1356 limits assumed): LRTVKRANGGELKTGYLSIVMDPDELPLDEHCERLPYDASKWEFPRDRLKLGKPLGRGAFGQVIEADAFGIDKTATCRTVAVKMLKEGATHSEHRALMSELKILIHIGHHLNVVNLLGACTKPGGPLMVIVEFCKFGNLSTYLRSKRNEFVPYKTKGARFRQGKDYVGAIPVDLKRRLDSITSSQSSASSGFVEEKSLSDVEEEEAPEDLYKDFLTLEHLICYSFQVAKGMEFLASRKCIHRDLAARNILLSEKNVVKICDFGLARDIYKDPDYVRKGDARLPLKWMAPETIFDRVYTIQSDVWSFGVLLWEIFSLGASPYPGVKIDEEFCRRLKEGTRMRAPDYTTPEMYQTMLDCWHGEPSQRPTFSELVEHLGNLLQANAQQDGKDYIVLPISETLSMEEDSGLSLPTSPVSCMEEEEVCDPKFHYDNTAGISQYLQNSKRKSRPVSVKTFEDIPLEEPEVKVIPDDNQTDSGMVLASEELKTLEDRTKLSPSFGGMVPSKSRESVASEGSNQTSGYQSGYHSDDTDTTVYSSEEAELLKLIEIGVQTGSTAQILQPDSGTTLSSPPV

Row | inhibition at 10 µM (human KDR enzyme) | inhibition at 10 µM (human FAK) | melting point | inhibition at 10 µM (Aurora2 kinase) | inhibition at 30 µM (human FAK; 30 μM (values marked *), read-out: FAK % inhib at 30* μM) | inhibition at 10 µM [1] | SMILES
1 | 55% | 90% | 249 °C | 88% | – | – | CS(=O)(=O)c1ccccc1S(=O)(=O)Nc1ccc2[nH]nc(-c3ccsc3)c2c1 [Example 51, 2-Methylsulfonyl-N-(3-thiophen-3-yl-1H-indazol-5-yl)benzenesulfonamide]
2 | 46% | 44% | 160 °C | 79% | – | – | O=S(=O)(Nc1ccc2[nH]nc(-c3ccccc3)c2c1)C1CCCCC1 [Example 99, N-(3-Phenyl-1H-indazol-5-yl)cyclohexanesulfonamide]
3 | 9% | 5% | 245 °C | 42% | – | – | CC(=O)Nc1ccccc1-c1n[nH]c2ccc(NS(=O)(=O)c3ccccc3S(C)(=O)=O)cc12 [Example 48, N-{2-[5-(2-Methylsulfonylbenzenesulfonylamino)-1H-indazol-3-yl]phenyl}acetamide]
4 | 32% | 66% | 170 °C | 89% | – | – | CS(=O)(=O)c1ccccc1S(=O)(=O)Nc1ccc2[nH]nc(/C=C/C(=O)O)c2c1.Cl [Example 80, (E)-3-[5(2-Methylsulfonylbenzenesulfonylamino)-1H-indazol-3-yl]-acrylic acid]
5 | – | – | 104 °C | – | – | – | O=S(=O)(Oc1ccc2[nH]ncc2c1)c1cccc(F)c1 (as salt: benzenesulfonate) [Example 17, 1H-Indazol-5-yl 3-fluorobenzenesulfonate]
6 | – | – | 246 °C | – | – | – | CC(=O)Nc1n[nH]c2ccc(NS(=O)(=O)c3cccc(F)c3)cc12 (hydrate or solvate) [Example 28, N-[5-(3-Fluorobenzenesulfonylamino)-1H-indazol-3-yl)acetamide]
7 | 70% | 66% | – | 88% | – | 83% | CS(=O)(=O)c1ccccc1S(=O)(=O)Nc1ccc2[nH]nc(-c3ccc(C(F)(F)F)cc3)c2c1 [Example 176, N-[3-(4-Trifluoromethylphenyl)-1H-indazol-5-yl]-2-methanesulfonyl-benzenesulfonamide]
8 | 68% | 96% | – | 94% | – | 69% | CS(=O)(=O)c1ccccc1S(=O)(=O)Nc1ccc2[nH]nc(-c3cccc(F)c3)c2c1 [Example 182, N-[3-(3-Fluorophenyl)-1H-indazol-5-yl]-2-methanesulfonyl-benzenesulfonamide]

Continued, compound first:

Row | SMILES | inhibition at 10 µM (human KDR enzyme) | inhibition at 10 µM (human FAK) | melting point | inhibition at 10 µM (Aurora2 kinase) | inhibition at 30 µM (human FAK; 30 μM (values marked *), read-out: FAK % inhib at 30* μM) | inhibition at 10 µM [1]
9 | CS(=O)(=O)c1ccccc1S(=O)(=O)Nc1ccc2[nH]nc(CCc3ccc(F)cc3)c2c1 [Example 75, N-{3-[2-(4-Fluorophenyl)ethyl]-1H-indazol-5-yl}-2-methylsulfonylbenzenesulfonamide] | 35% | 82% | 234 °C | 87% | – | –
10 | CC(=O)Nc1ccccc1-c1n[nH]c2ccc(NS(=O)(=O)c3cccc(F)c3)cc12 (hydrate or solvate) [Example 47, N-{2-[5-(3-Fluorobenzenesulfonylamino)-1H-indazol-3-yl]phenyl}acetamide] | – | – | 135 °C | – | – | –
11 | O=C(Nc1n[nH]c2ccc(NS(=O)(=O)c3cc(F)cc(F)c3)cc12)c1ccccc1 (hydrate or solvate) [Example 46, N-[5-(3,5-Difluorobenzenesulfonylamino)-1H-indazol-3-yl]benzamide] | – | – | 246 °C | – | – | –
12 | CS(=O)(=O)Nc1n[nH]c2ccc(NS(=O)(=O)c3cccc(F)c3)cc12 (hydrate or solvate) [Example 27, 3-Fluoro-N-(3-methylsulfonylamino-1H-indazol-5-yl)benzenesulfonamide] | – | – | 230 °C | – | – | –
13 | COc1ccc(-c2n[nH]c3ccc(NS(=O)(=O)c4ccccc4)cc23)cc1 [Example 31, N-[3-(4-Methoxyphenyl)-1H-indazol-5-yl]benzenesulfonamide] | 98% | 75% | 172 °C | 90% | – | –
14 | CS(=O)(=O)c1ccccc1S(=O)(=O)Nc1ccc2[nH]nc(C#N)c2c1 (hydrate or solvate) [Example 5, N-(3-Cyano-1H-indazol-5-yl)-2-methylsulfonylbenzenesulfonamide] | – | – | 272 °C | – | – | –
15 | CS(=O)(=O)c1ccccc1S(=O)(=O)Nc1ccc2[nH]nc(-c3ccc(C(=O)O)cc3)c2c1 (hydrate or solvate) [Example 69, 4-[5-(2-Methylsulfonylbenzenesulfonamino)-1H-indazol-3-yl]benzoic acid] | – | – | 199 °C | – | – | –
16 | CS(=O)(=O)c1ccccc1S(=O)(=O)Nc1ccc2[nH]nc(CCc3ccccc3)c2c1 [Example 90, 2-Methylsulfonyl-N-(3-phenethyl-1H-indazol-5-yl)benzenesulfonamide] | 45% | 89% | 192 °C | 100% | – | –
17 | N#Cc1n[nH]c2ccc(NS(=O)(=O)c3cccc(F)c3)cc12 [Example 4, N-(3-Cyano-1H-indazol-5-yl)-3-fluorobenzenesulfonamide] | 24% | – | 227 °C | – | 85% | –
18 | O=S(=O)(Nc1ccc2[nH]ncc2c1)c1ccccc1 [Example 24, N-(1H-Indazol-5-yl)benzenesulfonamide] | 10% | 76% | 179 °C | 60% | – | –
19 | CS(=O)(=O)c1ccccc1S(=O)(=O)Nc1ccc2[nH]nc(C(=O)Nc3ccccc3)c2c1 [Example 18, N-Phenyl-5-(2-methylsulfonylbenzenesulfonylamino)-1H-indazole-3-carboxamide] | 18% | 89% | 258 °C | 97% | – | –
20 | O=C(Nc1n[nH]c2ccc(NS(=O)(=O)c3cccc(F)c3)cc12)c1ccccc1 [Example 23, N-[5-(3-Fluorobenzenesulfonylamino)-1H-indazol-3-yl]benzamide] | – | 93% | 225 °C | 99% | – | –
21 | O=S(=O)(Nc1ccc2[nH]ncc2c1)c1ccc(Cl)c(Cl)c1 [Example 14, 3,4-Dichloro-N-(1H-indazol-5-yl)benzenesulfonamide] | – | 42% | 209 °C | – | – | –
22 | CN(C)c1c(F)c(F)c(S(=O)(=O)Nc2ccc3[nH]nc(-c4cc5ccccc5[nH]4)c3c2)c(F)c1F [Example 86, 4-Dimethylamino-2,3,5,6-tetrafluoro-N-[3-(1H-indol-2-yl)-1H-indazol-5-yl]benzenesulfonamide] | 85% | 40% | – | 86% | – | 53%
23 | C=Cc1ccc(-c2n[nH]c3ccc(NS(=O)(=O)c4ccccc4S(C)(=O)=O)cc23)cc1 [Example 185, 2-Methanesulfonyl-N-[3-(4-vinylphenyl)-1H-indazol-5-yl]-benzenesulfonamide] | 58% | 92% | – | 94% | – | 77%
24 | Cc1cc(C)c(S(=O)(=O)Nc2ccc3[nH]nc(-c4ccccc4)c3c2)c(C)c1 [Example 115, 2,4,6-Trimethyl-N-(3-phenyl-1H-indazol-5-yl)-benzenesulfonamide] | 78% | 31% | – | 70% | – | 79%
25 | CS(=O)(=O)c1ccccc1S(=O)(=O)Nc1ccc2[nH]nc(Nc3ccccc3)c2c1 [Example 83, 2-Methylsulfonyl-N-(3-phenylamino-1H-indazol-5-yl)-benzenesulfonamide] | 60% | 92% | – | 93% | – | 100%

— patent US6858638B2, “Substituted indazoles, compositions containing them, method of production and use” (Aventis Pharma S.A., priority 2002, dated 2005)
